Reference: article PMC7823652 (Viruses, 2020)
Where two headings read alike, the source gives them in different places.

Tests used:
ZIKV [1] = test: Image-based phenotypic antiviral screen in ZIKV-infected U87 cells; assay type: cell-based, Zika virus (strain H/PF/2013); details: for Infected Cells (U87, ZIKV) / Viral Titer (ZIKV): screen, U87 cells; for inhibition at 10 µM: Zika virus, U-87 MG
[2] = Screen cytotoxicity by nuclei count in ZIKV-infected U87 cells; assay type: cell-based; details: human; for viability at 48 h, 10 µM / viability at 10 µM: ZIKV-infected U87 cells; for viability at 48 h, 10 µM: ZIKV MOI 10, compound 10 µM, nuclei count relative to DMSO; for viability at 10 µM: screen
HAZV = test: microbe, parasite or virus in culture; assay type: cell-based, Hazara virus (isolate JC280); details: for inhibition at 10 µM: Hazara virus, SW13, 24 h; for Infected Cells (SW13, HAZV) / Viral Titer (HAZV): screen, SW13 cells
ZIKV [3] = test: Antiviral dose-response in ZIKV-infected U87 cells (infected cells, viral titer); assay type: cell-based, Zika virus (strain H/PF/2013); details: for EC50: U87, ZIKV MOI 1, 48 h
ZIKV [4] = test: Antiviral dose-response in ZIKV-infected Vero cells; assay type: cell-based, Zika virus (strain H/PF/2013); details: Zika virus, 48 h
U87 cells [5] = test: Cell viability by nuclei count in ZIKV-infected U87 cells; assay type: cell-based, Human
Vero cells = test: Cell viability by nuclei count in ZIKV-infected Vero cells; assay type: cell-based, African Green Monkey
[6] = Cell viability assay (Resazurin), uninfected U87 cells; assay type: cell-based, Human; details: human, read-out: Viability CC50 [µM] (95%-CI); for CC50 at 24 h: uninfected U87, 24 h; for CC50 at 48 h: uninfected U87, 48 h; for CC50 at 72 h: uninfected U87, 72 h
ZIKV [7] = test: Time-of-addition assay in ZIKV-infected U87 cells; assay type: cell-based, Zika virus (strain H/PF/2013)
in vitro = details: human
ZIKV [8] = test: Time course of ZIKV replication in U87 cells (vRNA, infected cells, titer)
hOGG1 = hOGG1 (Homo sapiens, UniProt O15527); test: hOGG1 IC50 (listed in supplementary data, method not described); assay type: biochemical
Chain of hOGG1 (O15527 whole entry): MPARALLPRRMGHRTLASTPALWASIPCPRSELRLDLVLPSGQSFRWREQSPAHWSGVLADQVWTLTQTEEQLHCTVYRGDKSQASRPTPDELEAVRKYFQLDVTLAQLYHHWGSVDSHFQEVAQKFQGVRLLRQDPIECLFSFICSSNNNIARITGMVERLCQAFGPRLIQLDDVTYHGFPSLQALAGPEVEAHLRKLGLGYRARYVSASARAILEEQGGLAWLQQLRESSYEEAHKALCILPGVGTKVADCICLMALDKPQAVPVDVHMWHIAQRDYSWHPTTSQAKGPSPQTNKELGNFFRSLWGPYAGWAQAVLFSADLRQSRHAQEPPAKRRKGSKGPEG

U87 cells [9] = test: Cell viability assay (Resazurin), uninfected U87 cells; assay type: cell-based, Human; details: for CC50: read-out: Viability CC50 [µM] (95%-CI)
ZIKV [10] = test: ZIKV infection (NS1 intensity) and viral titer in human cerebral organoids; assay type: cell-based, Zika virus (strain H/PF/2013); details: ZIKV 2 × 10^4 particles/organoid, 5 μM, all timepoints, relative to DMSO
human brain organoids = test: Viability and structure of ZIKV-infected human cerebral organoids; details: ZIKV 2 × 10^4 particles/organoid, 5 μM, 7 dpi and 10 dpi
[11] = U87, ZIKV MOI 10, 100 µM Ribavirin (positive control), 48 h
[12] = ZIKV MOI 10, 100 µM Ribavirin (positive control), 48 h
[13] = read-out: Inhibition of HAZV titer (%)
[14] = read-out: Inhibition of primary HAZV infection (%)
[15] = U87, ZIKV MOI 1, from 24 hpi and onwards
[16] = U87, ZIKV MOI 10, compound 10 µM, 48 h, relative to DMSO
[17] = ZIKV MOI 10, compound 10 µM, 48 h, relative to DMSO
[18] = U87, ZIKV MOI 10, compound 10 µM, 48 h, relative to DMSO, read-out: Inhibition of ZIKV titer (%)
[19] = U87, ZIKV MOI 10, compound 10 µM, 48 h, relative to DMSO, read-out: Inhibition of primary ZIKV infection (%)
[20] = Zika virus, U-87 MG, 48 h, read-out: Antiviral on primary infection IC50 [µM], ZIKV, U87, MOI 10, 48 h
[21] = Zika virus, U-87 MG, 48 h, read-out: Antiviral on titer (µM) IC50 [µM], ZIKV, U87, MOI 10, 48 h
[22] = Zika virus, U-87 MG, ZIKV NS1 staining, read-out: EC50 [μM] Infected cells
[23] = Zika virus, U-87 MG, end-point dilution assay, read-out: EC50 [μM] Viral titer
[24] = Homo sapiens, U-87 MG, 48 h, read-out: Viability (nuclei count) EC50 [µM]

NC(=O)c1ncn([C@@H]2O[C@H](CO)[C@@H](O)[C@H]2O)n1 [Ribavirin, reference compound]
Inhibition of ZIKV titer (%) (ZIKV [1]; [11]): 63% | Inhibition of primary ZIKV infection (%) (ZIKV [1]; [11]): 60% | Viral Titer (ZIKV) (%) (ZIKV [1]; [11]): 37% | Infected Cells (U87, ZIKV) (%) (ZIKV [1]; [12]): 40% | Infected Cells (U87, ZIKV) (ZIKV [1]): 40% | Viral Titer (ZIKV) (ZIKV [1]): 37% | viability at 48 h, 100 µM [2, 12]: 91% | inhibition at 10 µM (HAZV; [13]): 98% | inhibition at 10 µM (HAZV; [14]): 47% | Infected Cells (SW13, HAZV) (HAZV): 53% | Viral Titer (HAZV) (HAZV): 2% | IC50 (ZIKV [3]; Zika virus, U-87 MG, 48 h, ZIKV, U87, MOI 1, 48 h, read-out: Antiviral on primary infection IC50): 60.7 µM | IC50 (ZIKV [3]; Zika virus, U-87 MG, 48 h, ZIKV, U87, MOI 1, 48 h, read-out: Antiviral on titer (µM) IC50): 52.8 µM | IC50 (ZIKV [3]; Zika virus, U-87 MG, 48 h, ZIKV, U87, MOI 10, 48 h, read-out: Antiviral on primary infection IC50): 59.2 µM | IC50 (ZIKV [3]; Zika virus, U-87 MG, 48 h, ZIKV, U87, MOI 10, 48 h, read-out: Antiviral on titer (µM) IC50): 31.1 µM | IC50 (ZIKV [4]; MOI 1, 48 h, read-out: Antiviral on primary infection IC50): 52.6 µM | IC50 (ZIKV [4]; MOI 1, 48 h, read-out: Antiviral on titer (µM) IC50): 21 µM | IC50 (ZIKV [4]; MOI 10, 48 h, read-out: Antiviral on primary infection IC50): 65.1 µM | IC50 (ZIKV [4]; MOI 10, 48 h, read-out: Antiviral on titer (µM) IC50): 41 µM | EC50 (U87 cells [5]; Homo sapiens, U-87 MG, ZIKV, U87, MOI 10, 48 h, read-out: Viability (nuclei count) EC50): > 200 µM | EC50 (U87 cells [5]; ZIKV, U87, MOI 1, 48 h, read-out: Viability (nuclei count) EC50): > 200 µM | EC50 (Vero cells; Chlorocebus sabaeus, MOI 10, 48 h): > 200 µM | EC50 (Vero cells; MOI 1, 48 h): > 200 µM | CC50 at 24 h ([6]; uninfected U87 cells): > 300 µM | CC50 at 48 h ([6]; uninfected U87 cells): > 300 µM | CC50 at 72 h ([6]; uninfected U87 cells): > 300 µM | reduction of ZIKV titers, post-inoculation step (ZIKV [7]; U87, ZIKV MOI 10, 100 μM Ribavirin for 24 h after inoculation): 80% | effect on viral titer, later steps (budding) (ZIKV [7]; U87, ZIKV MOI 10, 100 μM Ribavirin from 22 h for 2 h): no effect | effect on viral titer, entry steps (ZIKV [7]; U87, ZIKV MOI 10, 100 μM Ribavirin, pre-treatment and during inoculation): no effect | viability at 10 µM (in vitro): 99% | viability at 24 h, 10 µM (in vitro): 99% | intracellular vRNA levels (ZIKV [8]; U87, ZIKV MOI 1, all timepoints (24, 48, 72 h)): reduced | ZIKV titers (ZIKV [8]; [15]): reduced | extracellular vRNA (ZIKV [8]; [15]): reduced

O=C(Nc1ccc(I)cc1)N1CCC(n2c(=O)[nH]c3cc(Cl)ccc32)CC1 [TH3289]
Viral Titer (ZIKV) (%) (ZIKV [1]; [16]): 4% | Infected Cells (U87, ZIKV) (%) (ZIKV [1]; [17]): 59% | inhibition at 10 µM (ZIKV [1]; [18]): 96% | inhibition at 10 µM (ZIKV [1]; [19]): 41% | Infected Cells (U87, ZIKV) (ZIKV [1]): 59% | Viral Titer (ZIKV) (ZIKV [1]): 4% | viability at 48 h, 10 µM ([2]; 48 h): 92% | viability at 10 µM [2]: 92% | inhibition at 10 µM (HAZV; [13]): 95% | inhibition at 10 µM (HAZV; [14]): 58% | Infected Cells (SW13, HAZV) (HAZV): 42% | Viral Titer (HAZV) (HAZV): 5% | IC50 (ZIKV [3]; [20]): 2.8 µM | IC50 (ZIKV [3]; [21]): 2.5 µM | EC50 (ZIKV [3]; [22]): 2.8 µM | EC50 (ZIKV [3]; [23]): 2.5 µM | EC50 (U87 cells [5]; [24]): > 50 µM | CC50 at 24 h [6]: > 50 µM | CC50 at 48 h [6]: > 50 µM | CC50 at 72 h [6]: 34 µM | viability at 24 h, 10 µM (in vitro): 77%

O=C(Nc1ccc(I)cc1)N1CCC(n2c(=O)[nH]c3cc(C(F)(F)F)ccc32)CC1 [TH5264, N-(4-iodophenyl)-4-[2-oxo-5-(trifluoromethyl)-2,3-dihydro-1H-1,3-benzodiazol-1-yl]piperidine-1-carboxamide]
Viral Titer (ZIKV) (%) (ZIKV [1]; [16]): 2% | Infected Cells (U87, ZIKV) (%) (ZIKV [1]; [17]): 46% | inhibition at 10 µM (ZIKV [1]; [18]): 98% | inhibition at 10 µM (ZIKV [1]; [19]): 54% | Infected Cells (U87, ZIKV) (ZIKV [1]): 46% | Viral Titer (ZIKV) (ZIKV [1]): 2% | viability at 48 h, 10 µM ([2]; 48 h): 86% | viability at 10 µM [2]: 86% | IC50 (ZIKV [3]; [20]): 2.7 µM | IC50 (ZIKV [3]; [21]): 3.2 µM | EC50 (ZIKV [3]; [22]): 2.7 µM | EC50 (ZIKV [3]; [23]): 3.2 µM | EC50 (U87 cells [5]; [24]): 26.7 µM | CC50 at 24 h [6]: > 50 µM | CC50 at 48 h [6]: > 50 µM | CC50 at 72 h [6]: 31.5 µM | viability at 24 h, 10 µM (in vitro): 94%

O=C(Nc1ccc(I)cc1)N1CCC(n2c(=O)[nH]c3c(Br)cccc32)CC1 [TH5487]
IC50 (hOGG1): 0.142 µM | EC50 (ZIKV [3]; ZIKV NS1 staining, read-out: EC50 [μM] Infected cells): 2.8 µM | EC50 (ZIKV [3]; end-point dilution assay, read-out: EC50 [μM] Viral titer): 2 µM | IC50 (ZIKV [3]; ZIKV, U87, MOI 10, 48 h, read-out: Antiviral on primary infection IC50): 2.8 µM | IC50 (ZIKV [3]; ZIKV, U87, MOI 10, 48 h, read-out: Antiviral on titer (µM) IC50): 2 µM | EC50 (U87 cells [5]; ZIKV, U87, MOI 10, 48 h, read-out: Viability (nuclei count) EC50): 35.2 µM | IC50 (U87 cells [9]; U87, Resazurin, all measured time points (24, 48 or 72 h), read-out: IC50 (toxicity profile, cellular viability)): > 50 µM | CC50 (U87 cells [9]; uninfected U87, 24 h): > 50 µM | CC50 (U87 cells [9]; uninfected U87, 48 h): > 50 µM | CC50 (U87 cells [9]; uninfected U87, 72 h): > 50 µM | reduction of ZIKV progeny particles produced by the organoids (ZIKV [10]): 60–70% | phenotypic rescue (retained structure of organoids) (human brain organoids): phenotypic rescue
